Data: ChEMBL document CHEMBL4602623, “Inhibition of hedgehog signaling by stereochemically defined des-triazole itraconazole analogues” (Bioorg Med Chem Lett, 2020)

experiment: Inhibition of Hedgehog signaling pathway in mouse ASZ001 cells assessed as decrease in Gli1 mRNA expression after 48 hrs by qRT-PCR analysis; type: cell-based; conditions: ASZ001, 48 h

In order of rising IC50:
1. CC[C@@H](C)n1ncn(-c2ccc(N3CCN(c4ccc(OC[C@@H]5CO[C@](CCl)(c6ccc(Cl)cc6Cl)O5)cc4)CC3)cc2)c1=O  20 nM
2. CC[C@@H](C)n1ncn(-c2ccc(N3CCN(c4ccc(OC[C@@H]5CO[C@@](CCl)(c6ccc(Cl)cc6Cl)O5)cc4)CC3)cc2)c1=O  25 nM
3. CC[C@@H](C)n1ncn(-c2ccc(N3CCN(c4ccc(OC[C@@H]5CO[C@](c6ccc(Cl)cc6Cl)(C(F)(F)F)O5)cc4)CC3)cc2)c1=O  67 nM
4. CC[C@@H](C)n1ncn(-c2ccc(N3CCN(c4ccc(OC[C@@H]5CO[C@@](c6ccc(Cl)cc6Cl)(C(F)(F)F)O5)cc4)CC3)cc2)c1=O  69 nM
5. CC[C@@H](C)n1ncn(-c2ccc(N3CCN(c4ccc(OC[C@@H]5CO[C@@](Cn6ccnc6)(c6ccc(Cl)cc6Cl)O5)cc4)CC3)cc2)c1=O  110 nM
6. CC[C@@H](C)n1ncn(-c2ccc(N3CCN(c4ccc(OC[C@@H]5CO[C@](Cn6ccnc6)(c6ccc(Cl)cc6Cl)O5)cc4)CC3)cc2)c1=O  110 nM
7. CCC(C)n1ncn(-c2ccc(N3CCN(c4ccc(OCC5COC(Cn6cncn6)(c6ccc(Cl)cc6Cl)O5)cc4)CC3)cc2)c1=O (stereo not drawn) [ITRACONAZOLE]  140 nM
8. CC[C@@H](C)n1ncn(-c2ccc(N3CCN(c4ccc(OC[C@@H]5CO[C@H](c6ccc(Cl)cc6Cl)O5)cc4)CC3)cc2)c1=O  300 nM
9. CC[C@@H](C)n1ncn(-c2ccc(N3CCN(c4ccc(OC[C@@H]5CO[C@@H](c6ccc(Cl)cc6Cl)O5)cc4)CC3)cc2)c1=O  310 nM
10. CC[C@@H](C)n1ncn(-c2ccc(N3CCN(c4ccc(OC[C@@H]5CO[C@@](CN)(c6ccc(Cl)cc6Cl)O5)cc4)CC3)cc2)c1=O  550 nM
11. CC[C@@H](C)n1ncn(-c2ccc(N3CCN(c4ccc(OC[C@@H]5CO[C@@](CN6C(=O)c7ccccc7C6=O)(c6ccc(Cl)cc6Cl)O5)cc4)CC3)cc2)c1=O  820 nM
12. CC[C@@H](C)n1ncn(-c2ccc(N3CCN(c4ccc(OC[C@@H]5CO[C@@](C(N)=O)(c6ccc(Cl)cc6Cl)O5)cc4)CC3)cc2)c1=O  940 nM
13. CC[C@@H](C)n1ncn(-c2ccc(N3CCN(c4ccc(OC[C@@H]5CO[C@](CN6C(=O)c7ccccc7C6=O)(c6ccc(Cl)cc6Cl)O5)cc4)CC3)cc2)c1=O  1070 nM
